According to PMC9077138, “An investigation on 3-acetyl-7-methoxy-coumarin Schiff bases and their Ru(II) metallates with potent antiproliferative activity and enhanced LDH and NO release” (RSC Advances, 2018):

How the values were obtained:
BSA = target: T1, BSA (Bos taurus, UniProt P02769); test: Three-dimensional fluorescence spectra of BSA; format: binding, bovine; conditions: BSA 10 μM + compound 10 μM, pH 7.4, 298 K
T1 construct: purchased HiMedia (Mumbai, India)
Description: To investigate the micro environmental changes in BSA/HSA during interaction with the compounds, three dimensional fluorescence spectroscopic studies have been performed. The changes observed in 3D emission spectra and contour lines of serum albumins in the absence and presence of ligands and complexes are given in Fig. 15, 16, S34 and S35 in the ESI ^† and their corresponding characteristic parameters are provided in Table 5. The emission spectra of serum albumins such as BSA and HSA have shown three characteristic peaks – peaks A and C corresponds to first and second order Rayleigh scattering and peak B corresponds to the spectral characteristics of Trp and Tyr residues of proteins.[57] The emission intensity of Rayleigh first order scattering peak increased upon adding the compounds to serum albumins. […] The fluorescence intensity of peak ‘B’ corresponding to the tryptophan and tyrosine residues decreased with slight blue shift. From the results, it is inferred that the molecular microenvironment and conformational changes of protein occurred after interaction with the complexes and ligands.
Fig. 15 Three-dimensional fluorescence spectra of BSA in the absence and presence of ruthenium(II) complexes 1–4 (pH 7.4, 298 K, [BSA] = 10 μM, [complex] = 10 μM).
Fig. S34. Three-dimensional fluorescence spectra of BSA in the absence and presence of
ligands H 2L1-4 (pH 7.4, 298 K, [HSA] =10 µM, [Ligand] =10 µM) […]

[1] = DPPH radical scavenging assay; conditions: in methanol
Method: (§1) It has been reported that free radical species such as reactive oxygen species (ROS), are involved in the pathogenesis of various diseases through effects on DNA directly and by acting as a tumour promoter.[59,60] The DPPH free radical scavenging activity of the ligands and complexes were studied and quantitatively antioxidant properties were determined by using phosphomolybdate method. We knew that the inhibitory effects of the tested compounds on DPPH radical are concentration dependent and the suppression ratio increases with increasing sample concentrations (Fig. S36 ^†). […] In the phosphomolybdenum assay, the antioxidant activity is expressed as the number of equivalents of ascorbic acid (Table 6). The total antioxidant activity of the compounds is in the following order complex 3 > complex 2 > complex 1 > complex 4 > H2L^3 > H2L^2 > H2L^1 > H2L^4 > ascorbic acid > [RuHClCO(PPh3)3]. The results concluded that the metal complexes are better antioxidants than their parent ligands which may be due to the chelation of the ligands to metal ion.[35] The radical scavenging ability of the new complexes is greater than that of few other reported ruthenium complexes, containing Schiff base ligands.[9]
(§2) The DPPH radical scavenging activity of the compounds have been carried out according to the reported method.[74] In this study, various concentrations of the experimental standard ascorbic acid, [RuHCl(CO)(PPh3)3], ligands (20–100 μM) and complexes (2–10 μM) in methanol were taken. Total antioxidant activity of the compounds was determined by the phosphomolybdate method.[75]

[2] = Total antioxidant capacity, phosphomolybdate method
Method: as §1, §2

A549 cells = test: Lactate dehydrogenase release; format: cell-based, human; conditions: A549, IC50 concentrations, 48 h
Method: (§3) LDH is a stable cytoplasmic enzyme that is released into the culture medium following loss of membrane integrity and serves as a general mean to assess cytotoxicity resulting from chemical compounds or environmental toxic factors.[68] In the present study, LDH leakage into the culture medium of the compounds treated A549 and MCF-7 cells was analyzed. […] The results confirmed the cytotoxic effect of the ligands and complexes on lung and breast cancer cell lines. The compounds could induce LDH leakage as high as that of cisplatin. […] Error bars represent the standard mean error (n = 6).

MCF-7 cells = test: Lactate dehydrogenase release; format: cell-based, human; conditions: MCF-7, IC50 concentrations, 48 h
Method: as §3

T1 sequence (P02769 25-607): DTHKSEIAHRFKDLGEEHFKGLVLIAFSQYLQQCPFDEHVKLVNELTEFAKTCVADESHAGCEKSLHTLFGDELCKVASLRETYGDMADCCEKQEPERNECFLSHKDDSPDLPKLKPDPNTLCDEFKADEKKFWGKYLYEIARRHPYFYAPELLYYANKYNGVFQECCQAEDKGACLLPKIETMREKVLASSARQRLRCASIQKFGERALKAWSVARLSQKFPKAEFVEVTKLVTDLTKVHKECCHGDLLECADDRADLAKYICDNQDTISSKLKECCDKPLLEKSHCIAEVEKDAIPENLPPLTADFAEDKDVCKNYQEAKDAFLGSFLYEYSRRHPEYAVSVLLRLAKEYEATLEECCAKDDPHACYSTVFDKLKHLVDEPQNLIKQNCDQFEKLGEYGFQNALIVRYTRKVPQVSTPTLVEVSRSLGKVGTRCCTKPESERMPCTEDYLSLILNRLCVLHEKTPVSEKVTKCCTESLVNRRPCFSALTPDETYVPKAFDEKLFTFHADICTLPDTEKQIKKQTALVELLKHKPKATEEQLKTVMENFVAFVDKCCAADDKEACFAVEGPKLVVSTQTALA

Compound | Fluorescence peaks Intensity (F) (BSA) | Fluorescence peaks Peak position λex/λem (BSA) | Fluorescence peaks Stokes Δλ (BSA) [nm] | Rayleigh scattering peaks Intensity (F) (BSA) | IC50 [1] [µM] | Total antioxidant capacity [2] | LDH release into the culture medium (A549 cells) | LDH release into the culture medium (MCF-7 cells)
COc1ccc2[c]3c(c(=O)oc2c1)C(C)=[N+]1N=C(N)[S][Ru-4]31([C]#[O+])([P+](c1ccccc1)(c1ccccc1)c1ccccc1)[P+](c1ccccc1)(c1ccccc1)c1ccccc1 [Complex 1, [Ru(7MAC-tsc)(CO)(PPh3)2]] | 395.56 | 280/338 | 58 | 867.32 | 7.13 ± 0.23 | 54.13 ± 0.28 μg ascorbic acid equivalents/ml |  | 
COc1ccc2[c]3c(c(=O)oc2c1)C(C)=[N+]1N=C(Nc2ccccc2)[S][Ru-4]31([C]#[O+])([P+](c1ccccc1)(c1ccccc1)c1ccccc1)[P+](c1ccccc1)(c1ccccc1)c1ccccc1 [Complex 4, [Ru(7MAC-ptsc)(CO)(PPh3)2]] | 368.76 | 280/340 | 60 | 741.59 | 7.39 ± 0.14 | 54.99 ± 0.65 μg ascorbic acid equivalents/ml |  | 
CCNC1=N[N+]2=C(C)c3[c](c4ccc(OC)cc4oc3=O)[Ru-4]2([C]#[O+])([P+](c2ccccc2)(c2ccccc2)c2ccccc2)([P+](c2ccccc2)(c2ccccc2)c2ccccc2)[S]1 [Complex 3, [Ru(7MAC-etsc)(CO)(PPh3)2]] | 304.43 | 280/339 | 59 | 958.23 | 5.28 ± 0.24 | 62.71 ± 0.37 μg ascorbic acid equivalents/ml | more potent in inducing LDH leakage into the culture than the rest | more potent in inducing LDH leakage into the culture than the rest
CNC1=N[N+]2=C(C)c3[c](c4ccc(OC)cc4oc3=O)[Ru-4]2([C]#[O+])([P+](c2ccccc2)(c2ccccc2)c2ccccc2)([P+](c2ccccc2)(c2ccccc2)c2ccccc2)[S]1 [Complex 2, [Ru(7MAC-mtsc)(CO)(PPh3)2]] | 372.76 | 280/339 | 59 | 837.83 | 6.75 ± 0.18 | 58.27 ± 0.46 μg ascorbic acid equivalents/ml |  | 
